{"source": "ChEMBL document CHEMBL1201862", "about": "“PubChem BioAssay data set” (2004)", "key": {"[1]": {"target": "Induced myeloid leukemia cell differentiation protein Mcl-1 (Homo sapiens, UniProt Q07820)", "sequence (Q07820 whole entry)": "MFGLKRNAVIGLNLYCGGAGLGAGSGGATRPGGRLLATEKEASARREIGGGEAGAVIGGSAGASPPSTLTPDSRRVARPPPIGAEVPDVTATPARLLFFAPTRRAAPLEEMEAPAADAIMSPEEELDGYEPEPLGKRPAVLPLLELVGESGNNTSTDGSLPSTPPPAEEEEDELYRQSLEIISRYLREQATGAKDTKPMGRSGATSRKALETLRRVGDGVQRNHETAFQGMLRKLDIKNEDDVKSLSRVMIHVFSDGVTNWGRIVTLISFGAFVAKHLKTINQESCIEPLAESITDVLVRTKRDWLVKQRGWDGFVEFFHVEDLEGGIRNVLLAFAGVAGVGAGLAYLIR", "format": "functional"}, "Hexokinase HKDC1": {"target": "T1, Hexokinase HKDC1 (Homo sapiens, UniProt Q2TB90)", "T1 sequence (Q2TB90 whole entry)": "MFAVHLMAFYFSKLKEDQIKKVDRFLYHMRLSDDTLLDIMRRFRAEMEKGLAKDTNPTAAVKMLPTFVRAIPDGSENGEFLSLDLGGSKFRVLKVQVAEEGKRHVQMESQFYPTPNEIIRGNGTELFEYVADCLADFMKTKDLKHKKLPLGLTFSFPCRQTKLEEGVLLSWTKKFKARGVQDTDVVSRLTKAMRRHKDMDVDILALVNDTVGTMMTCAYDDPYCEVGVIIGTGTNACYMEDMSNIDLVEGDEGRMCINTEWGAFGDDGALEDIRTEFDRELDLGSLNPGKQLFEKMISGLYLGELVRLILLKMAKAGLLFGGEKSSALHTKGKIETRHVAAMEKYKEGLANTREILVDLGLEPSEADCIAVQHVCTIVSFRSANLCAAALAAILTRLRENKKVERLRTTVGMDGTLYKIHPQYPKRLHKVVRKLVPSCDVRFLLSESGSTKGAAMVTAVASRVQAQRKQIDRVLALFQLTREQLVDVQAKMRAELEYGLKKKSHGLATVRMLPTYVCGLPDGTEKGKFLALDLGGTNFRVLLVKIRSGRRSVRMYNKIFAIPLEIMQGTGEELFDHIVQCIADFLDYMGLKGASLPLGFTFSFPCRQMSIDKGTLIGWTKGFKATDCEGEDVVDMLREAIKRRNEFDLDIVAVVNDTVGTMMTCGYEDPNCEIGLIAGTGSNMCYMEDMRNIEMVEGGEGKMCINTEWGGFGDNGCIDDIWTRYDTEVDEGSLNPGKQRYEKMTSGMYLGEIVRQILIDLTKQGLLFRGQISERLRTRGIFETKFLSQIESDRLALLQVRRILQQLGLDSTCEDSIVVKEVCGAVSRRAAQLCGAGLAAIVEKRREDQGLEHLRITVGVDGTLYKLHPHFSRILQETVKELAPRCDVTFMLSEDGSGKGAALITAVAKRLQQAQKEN", "assay": "HKDC1 hexokinase inhibitors, dose response, biochemical, W721R variant (AID 504729)", "format": "functional"}, "[2]": {"target": "T2, Heat shock factor protein 1 (Mus musculus, UniProt P38532)", "T2 sequence (P38532 whole entry)": "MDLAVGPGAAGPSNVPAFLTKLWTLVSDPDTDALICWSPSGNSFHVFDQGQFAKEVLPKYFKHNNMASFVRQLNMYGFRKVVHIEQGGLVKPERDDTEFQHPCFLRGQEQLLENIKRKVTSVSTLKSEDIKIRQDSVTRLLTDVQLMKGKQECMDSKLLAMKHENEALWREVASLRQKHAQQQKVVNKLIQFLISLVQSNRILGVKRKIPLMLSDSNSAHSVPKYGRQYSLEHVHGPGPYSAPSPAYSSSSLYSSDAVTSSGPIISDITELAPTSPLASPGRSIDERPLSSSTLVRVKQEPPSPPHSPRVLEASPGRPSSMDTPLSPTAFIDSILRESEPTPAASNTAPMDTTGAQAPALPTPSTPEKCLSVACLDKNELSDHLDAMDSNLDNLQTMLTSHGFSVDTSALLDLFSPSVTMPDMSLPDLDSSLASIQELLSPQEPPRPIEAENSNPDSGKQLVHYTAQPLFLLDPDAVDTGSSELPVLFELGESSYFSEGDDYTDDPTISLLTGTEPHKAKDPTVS", "assay": "inhibition of MG132-induced HSE-luciferase signal, confirmation, cell-based, NIH3T3, luminescence, dose retest (AID 2382);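 note: NIH3T3 fibroblasts with HSF1-driven luciferase reporter stressed by proteasome inhibitor MG132; luminescence from HSF1-driven luciferase expression after 8 hours of MG132 stress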", "format": "functional"}, "H9c2": {"tested_on": "H9c2", "assay": "cells", "format": "functional, cell-based", "conditions": "Rattus norvegicus, H9c2, Myocardium"}, "Bcl-2-like protein 10": {"target": "T3, Bcl-2-like protein 10 (Homo sapiens, UniProt Q9HD36)", "T3 sequence (Q9HD36 whole entry)": "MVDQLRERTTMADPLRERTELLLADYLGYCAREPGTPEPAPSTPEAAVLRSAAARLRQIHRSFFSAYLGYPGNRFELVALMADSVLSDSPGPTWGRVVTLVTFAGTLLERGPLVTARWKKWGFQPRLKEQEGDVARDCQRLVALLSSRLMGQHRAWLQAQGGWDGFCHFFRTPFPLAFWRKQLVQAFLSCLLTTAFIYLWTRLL", "assay": "displacers of TR3 peptide from Bcl-B, primary screen, selectivity assay for Bfl-1 inhibitor project, biochemical, fluorescence polarization, FITC-TR3 peptide (AID 748);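 note: fluorescence polarization from a fluorescein-labelled TR3 peptide binding purified Bcl-B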"}, "Estrogen receptor beta [3]": {"target": "T4, Estrogen receptor beta (Homo sapiens, UniProt Q92731)", "T4 sequence (Q92731 whole entry)": "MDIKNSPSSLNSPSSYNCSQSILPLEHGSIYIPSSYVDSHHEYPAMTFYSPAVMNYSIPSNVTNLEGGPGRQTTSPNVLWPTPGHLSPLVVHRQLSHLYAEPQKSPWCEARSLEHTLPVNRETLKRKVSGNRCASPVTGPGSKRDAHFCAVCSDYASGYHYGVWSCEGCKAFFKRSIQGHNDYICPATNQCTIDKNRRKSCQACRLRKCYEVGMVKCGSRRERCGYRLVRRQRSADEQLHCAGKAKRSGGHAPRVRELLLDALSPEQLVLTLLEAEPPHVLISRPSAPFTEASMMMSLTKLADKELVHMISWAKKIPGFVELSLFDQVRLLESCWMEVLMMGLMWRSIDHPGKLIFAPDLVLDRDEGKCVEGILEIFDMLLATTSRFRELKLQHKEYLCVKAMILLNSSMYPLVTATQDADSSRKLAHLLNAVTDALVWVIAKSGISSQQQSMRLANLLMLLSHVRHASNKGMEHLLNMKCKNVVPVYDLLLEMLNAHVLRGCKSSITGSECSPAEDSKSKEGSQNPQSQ"}, "Estrogen receptor beta [4]": {"target": "T4, Estrogen receptor beta", "assay": "ERβ–SRC-3 coactivator interaction inhibitors, confirmation, orthogonal assay, biochemical, ELISA, streptavidin-HRP readout (AID 1060)"}, "[5]": {"target": "Ras and Rab interactor 1/Tyrosine-protein kinase ABL1 (Homo sapiens, UniProt P00519+Q13671)", "format": "functional"}, "[6]": {"target": "T5, Carboxy-terminal domain RNA polymerase II polypeptide A small phosphatase 1 (Homo sapiens, UniProt Q9GZU7)", "T5 sequence (Q9GZU7 whole entry)": "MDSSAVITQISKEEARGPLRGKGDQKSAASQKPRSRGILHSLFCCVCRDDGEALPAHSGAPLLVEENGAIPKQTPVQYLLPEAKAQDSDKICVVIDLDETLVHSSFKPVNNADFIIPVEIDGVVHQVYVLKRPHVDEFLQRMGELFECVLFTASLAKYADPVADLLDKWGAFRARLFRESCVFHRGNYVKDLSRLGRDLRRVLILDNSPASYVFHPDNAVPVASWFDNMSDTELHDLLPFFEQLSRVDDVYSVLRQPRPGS", "assay": "inhibitors of CTDSP1, concentration-response testing, biochemical assay, absorbance-based, actives from ultra-high-throughput screening (AID 540297)", "format": "functional"}, "BJ [7]": {"tested_on": "BJ", "assay": "cytotoxicity toward BJ-TERT fibroblasts, dose response, cell-based, RAS-independent, luminescence (AID 1933)", "format": "functional", "conditions": "Homo sapiens"}, "[8]": {"target": "T6, Voltage-gated N-type calcium channel alpha-1B subunit/Amyloid beta A4 precursor protein-binding family A member 1 (Homo sapiens, UniProt Q00975+Q02410)", "T6 sequence (Q00975 whole entry)": "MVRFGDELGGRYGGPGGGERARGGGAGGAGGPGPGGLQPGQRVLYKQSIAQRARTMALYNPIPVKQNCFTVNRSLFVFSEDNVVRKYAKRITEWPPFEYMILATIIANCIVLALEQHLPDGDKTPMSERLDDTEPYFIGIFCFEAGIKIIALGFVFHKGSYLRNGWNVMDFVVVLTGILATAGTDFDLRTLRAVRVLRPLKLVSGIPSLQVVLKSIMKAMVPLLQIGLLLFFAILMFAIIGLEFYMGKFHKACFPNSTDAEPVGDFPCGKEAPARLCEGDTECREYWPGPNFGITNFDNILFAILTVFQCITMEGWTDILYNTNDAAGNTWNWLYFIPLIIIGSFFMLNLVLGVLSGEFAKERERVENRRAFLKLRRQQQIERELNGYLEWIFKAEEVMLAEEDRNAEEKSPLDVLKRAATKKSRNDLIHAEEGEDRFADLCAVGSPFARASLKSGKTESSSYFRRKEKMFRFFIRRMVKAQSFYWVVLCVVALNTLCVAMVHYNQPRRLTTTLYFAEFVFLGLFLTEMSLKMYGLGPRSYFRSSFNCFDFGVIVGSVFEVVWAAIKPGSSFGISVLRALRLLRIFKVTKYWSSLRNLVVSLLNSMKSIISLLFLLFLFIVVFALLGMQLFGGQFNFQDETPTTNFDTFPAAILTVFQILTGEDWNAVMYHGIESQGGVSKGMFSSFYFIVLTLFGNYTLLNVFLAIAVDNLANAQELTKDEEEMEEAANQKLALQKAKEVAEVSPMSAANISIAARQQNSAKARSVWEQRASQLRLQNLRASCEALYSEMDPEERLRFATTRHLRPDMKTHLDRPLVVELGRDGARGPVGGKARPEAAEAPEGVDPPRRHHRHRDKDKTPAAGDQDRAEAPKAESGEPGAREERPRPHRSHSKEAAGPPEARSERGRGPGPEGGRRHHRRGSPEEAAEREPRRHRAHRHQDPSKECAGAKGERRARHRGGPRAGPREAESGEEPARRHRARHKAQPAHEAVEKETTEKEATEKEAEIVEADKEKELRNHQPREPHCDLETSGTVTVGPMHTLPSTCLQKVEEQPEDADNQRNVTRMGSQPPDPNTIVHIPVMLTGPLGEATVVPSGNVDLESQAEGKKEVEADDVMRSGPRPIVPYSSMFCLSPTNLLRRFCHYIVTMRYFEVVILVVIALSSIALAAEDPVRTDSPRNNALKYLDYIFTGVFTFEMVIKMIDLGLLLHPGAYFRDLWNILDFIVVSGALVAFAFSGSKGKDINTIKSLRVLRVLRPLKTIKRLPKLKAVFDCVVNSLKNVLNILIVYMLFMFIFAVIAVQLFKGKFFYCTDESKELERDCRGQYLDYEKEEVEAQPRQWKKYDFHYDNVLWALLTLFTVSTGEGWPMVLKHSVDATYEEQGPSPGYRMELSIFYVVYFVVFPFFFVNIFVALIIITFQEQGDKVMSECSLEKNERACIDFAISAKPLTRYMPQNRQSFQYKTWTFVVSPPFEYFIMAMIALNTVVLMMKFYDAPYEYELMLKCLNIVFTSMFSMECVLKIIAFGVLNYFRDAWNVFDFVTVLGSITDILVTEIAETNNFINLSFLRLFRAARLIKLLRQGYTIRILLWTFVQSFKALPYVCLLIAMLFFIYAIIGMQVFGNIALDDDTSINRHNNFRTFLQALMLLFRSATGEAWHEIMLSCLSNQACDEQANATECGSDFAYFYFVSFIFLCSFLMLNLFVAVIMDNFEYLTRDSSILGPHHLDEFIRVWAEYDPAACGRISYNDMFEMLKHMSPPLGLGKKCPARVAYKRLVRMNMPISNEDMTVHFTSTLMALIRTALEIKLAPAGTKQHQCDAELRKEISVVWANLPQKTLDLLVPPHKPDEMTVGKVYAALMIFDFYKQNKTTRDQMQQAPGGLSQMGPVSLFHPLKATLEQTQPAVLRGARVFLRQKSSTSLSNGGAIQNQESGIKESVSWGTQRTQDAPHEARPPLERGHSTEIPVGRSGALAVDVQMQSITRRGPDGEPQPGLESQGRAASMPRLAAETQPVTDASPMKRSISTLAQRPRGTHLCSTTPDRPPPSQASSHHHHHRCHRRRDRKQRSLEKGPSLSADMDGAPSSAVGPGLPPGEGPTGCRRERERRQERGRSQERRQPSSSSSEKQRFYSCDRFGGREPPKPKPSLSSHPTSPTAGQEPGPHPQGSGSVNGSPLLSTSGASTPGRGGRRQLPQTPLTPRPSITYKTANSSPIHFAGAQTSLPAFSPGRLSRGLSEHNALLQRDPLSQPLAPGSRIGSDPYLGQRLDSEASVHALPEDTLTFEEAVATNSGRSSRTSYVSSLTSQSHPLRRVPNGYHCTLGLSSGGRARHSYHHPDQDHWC", "T6 sequence (Q02410 whole entry)": "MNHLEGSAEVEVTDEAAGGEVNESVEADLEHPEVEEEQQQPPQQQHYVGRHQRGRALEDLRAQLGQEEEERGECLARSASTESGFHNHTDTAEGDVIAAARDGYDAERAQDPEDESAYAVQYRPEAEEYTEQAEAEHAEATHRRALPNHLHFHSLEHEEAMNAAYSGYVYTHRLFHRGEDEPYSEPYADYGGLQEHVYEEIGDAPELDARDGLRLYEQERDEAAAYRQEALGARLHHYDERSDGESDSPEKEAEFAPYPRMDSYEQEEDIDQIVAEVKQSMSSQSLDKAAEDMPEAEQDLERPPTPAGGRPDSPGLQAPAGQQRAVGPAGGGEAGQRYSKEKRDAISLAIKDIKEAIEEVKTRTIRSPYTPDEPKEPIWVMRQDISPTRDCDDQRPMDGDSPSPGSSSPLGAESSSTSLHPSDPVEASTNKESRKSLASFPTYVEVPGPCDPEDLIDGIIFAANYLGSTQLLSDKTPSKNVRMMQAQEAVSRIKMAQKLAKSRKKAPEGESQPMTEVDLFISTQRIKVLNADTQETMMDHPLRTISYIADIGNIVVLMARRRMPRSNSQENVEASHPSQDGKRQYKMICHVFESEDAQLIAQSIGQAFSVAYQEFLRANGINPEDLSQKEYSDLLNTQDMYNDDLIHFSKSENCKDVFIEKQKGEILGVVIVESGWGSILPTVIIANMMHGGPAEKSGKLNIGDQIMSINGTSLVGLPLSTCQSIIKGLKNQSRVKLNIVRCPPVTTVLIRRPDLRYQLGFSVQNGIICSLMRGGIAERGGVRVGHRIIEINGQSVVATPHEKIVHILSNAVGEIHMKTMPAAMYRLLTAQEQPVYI", "format": "protein assay"}, "BJ [9]": {"tested_on": "BJ", "assay": "cells", "format": "functional, cell-based", "conditions": "Homo sapiens"}, "Estrogen receptor": {"target": "T7, Estrogen receptor (Homo sapiens, UniProt P03372)", "T7 sequence (P03372 whole entry)": "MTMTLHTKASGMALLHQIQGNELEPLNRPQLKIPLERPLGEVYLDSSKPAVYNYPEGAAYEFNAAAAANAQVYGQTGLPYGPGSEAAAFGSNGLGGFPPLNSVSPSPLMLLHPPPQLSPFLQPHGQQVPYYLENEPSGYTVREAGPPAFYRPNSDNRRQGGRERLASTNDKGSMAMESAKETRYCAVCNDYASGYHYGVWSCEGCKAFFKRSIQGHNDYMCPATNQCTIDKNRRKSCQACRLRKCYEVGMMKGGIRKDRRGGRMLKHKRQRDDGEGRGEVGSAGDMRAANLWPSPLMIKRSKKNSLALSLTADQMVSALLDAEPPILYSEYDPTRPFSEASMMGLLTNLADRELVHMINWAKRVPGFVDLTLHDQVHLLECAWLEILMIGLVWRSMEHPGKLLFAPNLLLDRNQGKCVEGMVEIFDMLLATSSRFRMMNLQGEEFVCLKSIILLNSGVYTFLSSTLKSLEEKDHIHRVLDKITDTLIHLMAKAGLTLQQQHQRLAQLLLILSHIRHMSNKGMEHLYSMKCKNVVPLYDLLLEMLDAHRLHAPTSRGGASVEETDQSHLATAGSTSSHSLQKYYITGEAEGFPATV"}, "[10]": {"target": "T6, Voltage-gated N-type calcium channel alpha-1B subunit/Amyloid beta A4 precursor protein-binding family A member 1", "format": "protein assay", "remark": "listed apart in the source"}, "BJ [11]": {"tested_on": "BJ", "assay": "cytotoxicity toward BJ-TERT-LT-ST fibroblasts, dose response, cell-based, RAS-independent, luminescence (AID 1935);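 note: BJ fibroblasts immortalized with TERT plus LT and ST oncogenes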", "format": "functional", "conditions": "Homo sapiens"}, "[12]": {"assay": "cytotoxicity toward DRD oncogenic fibroblasts, dose response, cell-based, non-viral oncogenic, luminescence (AID 1934)", "format": "functional", "conditions": "Homo sapiens"}, "[13]": {"target": "T2, Heat shock factor protein 1", "assay": "HSF1 potentiators in luciferase reporter cells, confirmation, cell-based, NIH3T3, luminescence, dose retest (AID 435004);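 note: stress induced by proteasome inhibitor MG132 added 30 min after compound; actives raise luminescence as potentiators of the MG132 stress response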", "format": "functional"}}, "note": "Active and inactive are the calls of the source."}
{"compound": "CCn1cc(C(=O)NCc2ccc3c(c2)OCO3)c2cc(OC)c(OC)cc2c1=O", "values": [{"measurement": "IC50", "setting": "[1]", "result": "7.31 µM (not active)"}, {"measurement": "IC50", "setting": "Hexokinase HKDC1", "result": "17.2 µM (active)"}]}
{"compound": "CCOc1ccccc1Nc1nnc(SCc2nnc(-c3cc(OC)c(OC)c(OC)c3)o2)s1", "values": [{"measurement": "EC50", "setting": "[2]", "result": "21.7 µM (active)"}, {"measurement": "IC50", "setting": "Hexokinase HKDC1", "result": "18.8 µM (active)"}, {"measurement": "IC50", "setting": "H9c2", "result": "> 79 µM (inactive)"}]}
{"compound": "Cc1ccc(-n2c(SCc3cc(=O)n4ccsc4n3)nnc2-c2cccnc2)c(C)c1", "values": [{"measurement": "IC50", "setting": "Bcl-2-like protein 10", "result": "> 100 µM (inactive)"}, {"measurement": "IC50", "setting": "Estrogen receptor beta [3]", "result": "> 50 µM (not active)"}, {"measurement": "IC50", "setting": "Estrogen receptor beta [4]", "result": "0.721 µM (not active)"}, {"measurement": "IC50", "setting": "[5]", "result": "19.6 µM (inactive)"}]}
{"compound": "O=C(c1cc2c(s1)CCC2)N1CCN(c2ccccc2)CC1", "values": [{"measurement": "IC50", "setting": "Bcl-2-like protein 10", "result": "36.3 µM (active)"}, {"measurement": "IC50", "setting": "Estrogen receptor beta [3]", "result": "3.87 µM (active)"}, {"measurement": "IC50", "setting": "Estrogen receptor beta [4]", "result": "> 50 µM (not active)"}, {"measurement": "IC50", "setting": "[6]", "result": "22.4 µM (active)"}]}
{"compound": "Cc1c(C(=O)OCC2CCCO2)[nH]c2c1C(=O)CC(c1ccco1)C2", "note": "(configuration not stated)", "values": [{"measurement": "IC50", "setting": "Bcl-2-like protein 10", "result": "23.8 µM (active)"}, {"measurement": "EC50", "setting": "BJ [7]", "result": "12.2 µM (active)"}, {"measurement": "IC50", "setting": "[8]", "result": "21.9 µM (active)"}, {"measurement": "EC50", "setting": "BJ [9]", "result": "36.9 µM (active)"}, {"measurement": "IC50", "setting": "Estrogen receptor", "result": "32.1 µM (not active)"}, {"measurement": "IC50", "setting": "[10]", "result": "> 50 µM (inactive)"}, {"measurement": "EC50", "setting": "BJ [11]", "result": "23.6 µM (active)"}, {"measurement": "EC50", "setting": "[12]", "result": "21.8 µM (active)"}, {"measurement": "EC50", "setting": "[13]", "result": "> 260 µM (inactive)"}]}
